Measurements: patent publication EP0319986B1, “Anti-plasmin depressant” (NIPPON SHINYAKU COMPANY, LIMITED, priority 1987, dated 1989)

Columns and labels:
α2-PI = α2-PI activity in plasma of Beagle dogs after consecutive intravenous administration (S-2251); format: in vivo; settings: 30 mg/kg intravenous, consecutive 7 days, activity prior to administration = 100%, n=3
Procedure: Three (3) male Beagle dogs were used for the control group and the administered group, respectively, as animals to be administered.
A test sample (Compound No. 2) was dissolved in a concentration of […] 0.1 ml, using 0.1 M phosphage buffer (pH 7.2). After dissolution, the solution was sterilized by filtration through a sterile filter (pore size, 0.2 µm) and then 0.3 ml of the solution was administered per 1 kg of body weight (30 mg/kg). The administration was made through the right front limb vein for consecutive 7 days. Collected blood was mixed with 3.8% sodium citrate in a ratio of 1 : 9 by volume. By centrifugation at 3000 rpm for 15 minutes, plasma was isolated.
The α2-PI activity was measured as an inhibition activity against decomposition of plasmin with the synthetic chromogenic substrate S-2251. The results of measurement are shown as change in inhibition activity after administration based on 100% of the plasmin inhibition activity prior to administration of the test sample (Table 2). The sample number in each group was 3 samples.
The α2-PI activity was obviously depressed by consecutive administration of the test compound in a dose of 30 mg/kg.

fibrin clot = assay: Lysis by urokinase of 125I-fibrin clots formed from plasma of treated Beagle dogs; format: in vivo; settings: plasma 4 Days After Administration of 30 mg/kg once a day, 37°C, 12 hours, n=3
Procedure: A test sample (Compound No. 2) was consecutively administered to Beagle dogs in a dose of 30 mg/kg once a day. Plasma was isolated prior to and 4 days after the administration. The α2-PI activity in plasma was measured and at the same time, fibrin clot was formed in vitro using the plasma. When urokinase as a thrombolytic agent was acted on the fibrin clot, a degree of lysis was compared between plasma prior to the administration and plasma 4 days after the administration.
To 300 µl of the isolated plasma, 40 µl of ^125I-fibrinogen (0.1 mci/ml) was added and 50 µl each of the mixture was dispensed in a test tube. 5 µl each of a solution mixture of 25 U/ml thrombin and 0.5 M calcium chloride was added to each test tube, which was incubated at 37°C for 30 minutes to prepare fibrin clots. Solutions of 15 and 30 U/ml of urokinase in 2% albumin solution and the resulting solution ware charged in each test tube by 1 ml each.
After incubating at 37°C for 12 hours, 25 µl of the supernatant was collected in an RAI tube and ^125I-fibrin decomposition products isolated in the supernatant were measured with a γ-counter. The sample number was 3 in each group.

[1] = test system: CPAE (calf pulmonary artery endothelia); assay: Thrombolytic test in vitro: CPAE culture supernatant on fibrin plate, lysis circle; format: cell-based; settings: 5 µl of 0.2 mg/ml compound solution per well of CPAE cells, 72 hours; 5 µl supernatant on fibrin plate with plasminogen, 4 hours; 4 mm or more = thrombolytic ability induced
Procedure: Thrombolytic activity-inducing ability in the established vascular endothelial cell culture system was examined using CPAE (calf pulmonary artery endothelia).
[…] cells were purchased from Dainippon Pharmaceutical Co., Ltd., Department of Laboratory Products. CPAE cells were subcultured in 10% FCS-Eagle MEM medium charged in a culture flask of 25 cm^2. From the cell suspension fractionated upon subculture, 0.1 ml was transferred into a test tube with a sterilized pipette. Then, the cell suspension was diluted to 10 fold with 0.9 ml of Trypan Blue solution and a cell count was counted with a cell counter. After diluting with 10% FCS-Eagle MEM medium so as to have a cell count of 2 x 10^5 cells/ml, 100 µl each/well, namely, 2 x 10^4 cells/well, of the dilution was dispensed in a 96 well microtiter plate (manufactured by Corning) with a micropipette. The plate was incubated at 37°C in 5% CO2.
The compound used according to the present invention was dissolved in medium in 0.2 mg/ml; the compound that was insoluble in the medium was dissolved in less than 1% of DMSO and the resulting solution was aseptically filtered through a filter; 5 µl of the solution was added to the well with a sterilized micropipette 24 hours after onset of the incubation. After culturing at 37°C for 72 hours in 5% CO2, the collected culture supernatant was provided for measurement.
The measurement was performed as follows. Plasminogen, 5 µl, was charged in a well of fibrin plate (manufactured by Kitazato institute), which was allowed to stand until diffusion was completed. After diffusion, 5 µl of the supernatant was charged and then put in a carbon dioxide gas incubator of 37°C. Four hours after, evaluation was made by formation of a transparent lysis circle by fibrinolysis.
In the case of forming a circle of 4 mm or more due to fibrinolysis, it was judged that thrombolytic ability of CPAE cells was induced.
After the fibrinolytic activity was checked over, the well was fixed with 2.5% of glutaraldehyde in a final concentration. Then, the solution was discarded and the system was washed with PBS. After washing, moisture was removed. After staining with 100 µl of 0.1% crystal violet and allowing stand for 2 to 3 minutes, the system was washed with running water. After an excess of the staining solution was washed out, moisture was removed and the dye bound to the cells was eluted by 100 µl of methanol. Using multiscanning (Titertech), measurements were performed at a wavelength of 580 nm in accordance with the ABS method and the matrix method to confirm that the cells were not injured.

[2] = test system: urokinase type plasminogen activator; assay: Fibrin autography of CPAE culture solution after SDS-polyacrylamide gel electrophoresis; format: cell-based, calf; settings: culture solution of CPAE cells added with compound; lysis at the position of molecular weight of urokinase type plasminogen activator
Description: It has been clarified that the compounds used according to the present invention are capable of inducing fibrinolytic activity in CPAE cells. In order to verify by what substance in addition to the α2-PI lowering activity, this fibrinolytic activity is induced, analysis was made on the culture solution added with Compound No. 2 out of the compounds used according to the present invention, by means of fibrin autography.
By SDS-polyacrylamide gel using 10% gel, this culture solution and t-PA (tissue plasminogen activator) and urokinase were subjected to electrophoresis. After the electrophoresis, the gel was treated with 2.5% Triton X-100, which was inoculated on agar plate added with fibrinogen, thrombin and plasminogen. A place of fibrin which caused lysis was confirmed in an incubator of 37°C in 5% CO2.

in vivo = settings: mouse
Procedure: Four (4) ddY strain male mice of 6 week age were used for each group of the test sample.
In intravenous administration, each sample was dissolved in 0.9% physiological saline and the solution was administered through the tail vein. In intraperitoneal administration, each sample was suspended in 0.5% CMC-physiological saline and 0.1 ml of the suspension per […] of mouse body weight was intraperitoneally administered. In oral administration, each sample was suspended in 0.5% CMC-physiological saline and 0.2 ml of the suspension per […] administered.
Observation was made immediately after the administration. After observation for 1 week after the administration, the mice was sacrificed with chloroform and subjected to autopsy.

In the case of `CN1C[C@H](O)[C@@H](O)[C@H](O)[C@H]1CO` [Compound No. 2, N-methylmoranoline], the “α2-PI activity (%)” value (α2-PI; Day 1) was 95%, the “α2-PI activity (%)” value (α2-PI; Day 2) was 83% and the “α2-PI activity (%)” value (α2-PI; Day 3) was 84%. The “α2-PI activity (%)” value (α2-PI; Day 4) was 76%, the “α2-PI activity (%)” value (α2-PI; Day 5) was 75% and the “α2-PI activity (%)” value (α2-PI; Day 6) was 86%. For the same compound, the “α2-PI activity (%)” value (α2-PI; Day 7) was 89%, the “Rate of Lysis of Fibrin Clot (%)” value (fibrin clot; Urokinase Activity 0 U) was 21.5% and the “Rate of Lysis of Fibrin Clot (%)” value (fibrin clot; Urokinase Activity 15 U) was 63.8%. The “Rate of Lysis of Fibrin Clot (%)” value (fibrin clot; Urokinase Activity 30 U) was 93.7%, the “Diameter (mm) of the circle due to fibrinolysis” value [1] was 7.9 mm and the “Induction of urokinase type plasminogen activator in CPAE (fibrin autography)” value [2] was “strongly induced production of urokinase type plasminogen activator”. The LD50 at 168 h (in vivo; ip) was 10000 mg/kg, the LD50 at 168 h (in vivo; iv) was 5090 mg/kg and the LD50 at 168 h (in vivo; po) was 10000 mg/kg.
